In patent publication US8691811B2, “Quinazolinone linked pyrrolo[2,1-c][1,4]benzodiazepine hybrids as potential anticancer agents and process for the preparation thereof” (Council of Scientific & Industrial Research, priority 2008, dated 2014):
pIC50: −log10 of the molar value.

Columns and labels:
[1] = tested on: duplex-form calf thymus DNA (CT-DNA); assay: Thermal denaturation studies with calf thymus DNA; assay type: binding; conditions: [PBD]:[DNA] molar ratio 1:5, CT-DNA 100 μM, ligand 20 μM, pH 7.00
Procedure: Compounds have been subjected to thermal denaturation studies with duplex-form calf thymus DNA (CT-DNA) using a modification of a reported procedure. Working solutions in aqueous buffer ([…] NaH2PO4/Na2HPO4, 1 mM Na2EDTA, pH 7.00+0.01). containing CT-DNA (100 μm in phosphate) and the PBD (20 μm) have been prepared by addition of concentrated PBD solutions in DMSO to obtain a fixed [PBD]/[DNA] molar ratio of 1:5. The DNA-PBD solutions have been incubated at 37° C. for 0 and 18 hrs prior to analysis. Samples have been monitored at 260 nm using a Beckman DU-800 spectrophotometer fitted with high performance temperature controller, and heated at 1° C. min^−1 in the 40-110° C. range. DNA helix→coil transition temperatures (Tm) have been obtained from the maxima in the d(A260)/dT derivative plots. Drug-induced alterations in DNA melting behavior are given by: ΔTm=Tm(DNA+PBD)−Tm(DNA alone), where the Tm value for the PBD-free CT-DNA is 68.5±0.01.
The DNA-binding for these novel C8-linked quinazolinone-PBD hybrids has been examined by thermal denaturation studies using calf thymus (CT) DNA. […] Data for 5b, 5c, 5d, and 5k, 5l, 5m and DC-81 are included in Table 5 for comparison.

HOP-62 = assay: Tata protocol cytotoxicity (SRB, 48 h), HOP-62; assay type: cell-based, human; conditions: HOP-62, lung
Procedure: (§1) The C8-linked quinazolinone-PBD hybrids (5b, 5c, 5k, 5l, 5m) have been tested against eleven human tumour cell lines derived from seven cancer types (lung cancer, colon cancer, cervix, ovarian cancer, oral cancer, prostate cancer and breast cancer) as per Tata protocol. For each compound, dose response curves for individual cell lines have been measured at a minimum of five concentrations at 10 fold dilutions. A protocol of 48 h continuous drug exposure has been used, and a sulforhodamine B (SRB) protein assay was used to estimate cell viability or growth. Compounds 5b, 5c, 5k, 5l, 5m have been evaluated for their in vitro cytotoxicity in eleven cell lines from seven human cancer types of lung (Hop-62, A-549) colon (COLO-205) cervix (Si-Ha), ovary (A-2780), prostate (PC3) breast (MCF7, Zr-75-1), oral (DWD, GURAV, KB). The results are expressed as percent of cell growth determined relative to that of untreated control cells (Table-4).

A-549 = assay: Tata protocol cytotoxicity (SRB, 48 h), A-549; assay type: cell-based, human
Procedure: as §1

DWD = assay: Tata protocol cytotoxicity (SRB, 48 h), DWD; assay type: cell-based, human; conditions: oral
Procedure: as §1

GURAV = assay: Tata protocol cytotoxicity (SRB, 48 h), GURAV; assay type: cell-based, human; conditions: oral
Procedure: as §1

KB = assay: Tata protocol cytotoxicity (SRB, 48 h), KB; assay type: cell-based, human; conditions: oral
Procedure: as §1

A-2780 = assay: Tata protocol cytotoxicity (SRB, 48 h), A-2780; assay type: cell-based, human
Procedure: as §1

PC-3 = assay: Tata protocol cytotoxicity (SRB, 48 h), PC-3; assay type: cell-based, human; conditions: PC-3, prostate
Procedure: as §1

Si-Ha = assay: Tata protocol cytotoxicity (SRB, 48 h), Si-Ha; assay type: cell-based, human; conditions: cervix
Procedure: as §1

Colo-205 = assay: Tata protocol cytotoxicity (SRB, 48 h), Colo-205; assay type: cell-based, human; conditions: Colo-205, colon
Procedure: as §1

Zr-75-1 = assay: Tata protocol cytotoxicity (SRB, 48 h), Zr-75-1; assay type: cell-based, human; conditions: Zr-75-1, breast
Procedure: as §1

MCF7 = assay: Tata protocol cytotoxicity (SRB, 48 h), MCF7; assay type: cell-based, human; conditions: MCF7, breast
Procedure: as §1

[2] = tested on: eleven human tumour cell lines; assay: Tata protocol in vitro cytotoxicity (SRB, 48 h), all cell lines; assay type: cell-based; conditions: bound over all eleven cell lines, read-out: GI50 value against eleven cell lines in seven cell panels
Procedure: as §1

[3] = tested on: lung cancer cell lines (Hop-62, A-549); assay: Tata protocol cytotoxicity (SRB, 48 h), lung panel; assay type: cell-based; conditions: Homo sapiens; range over the panel; exposure period of at least 48 hrs; read-out: GI50, in vitro activity against lung
Procedure: as §1

[4] = tested on: colon cancer cell line (COLO-205); assay: Tata protocol cytotoxicity (SRB, 48 h), colon panel; assay type: cell-based; conditions: Homo sapiens, exposure period of at least 48 hrs, read-out: GI50, in vitro activity against colon
Procedure: as §1

[5] = tested on: ovarian cancer cell line (A-2780); assay: Tata protocol cytotoxicity (SRB, 48 h), ovarian panel; assay type: cell-based; conditions: Homo sapiens, A2780; exposure period of at least 48 hrs; read-out: GI50, in vitro activity against ovarian
Procedure: as §1

[6] = tested on: prostate cancer cell line (PC3); assay: Tata protocol cytotoxicity (SRB, 48 h), prostate panel; assay type: cell-based; conditions: Homo sapiens; exposure period of at least 48 hrs; read-out: GI50, in vitro activity against prostate
Procedure: as §1

[7] = tested on: breast cancer cell lines (MCF7, Zr-75-1); assay: Tata protocol cytotoxicity (SRB, 48 h), breast panel; assay type: cell-based; conditions: Homo sapiens; range over the panel; exposure period of at least 48 hrs; read-out: IC50, in vitro activity against breast
Procedure: as §1

| SMILES | ΔTm after incubation at 37° C. for 0 h [1] | ΔTm after incubation at 37° C. for 18 h [1] | GI50 (HOP-62) | GI50 (A-549; A-549, lung) | GI50 (DWD) | GI50 (GURAV) | GI50 (KB) | GI50 (A-2780; A-2780, ovary) | GI50 (PC-3) | GI50 (Si-Ha) | GI50 (Colo-205) | GI50 (Zr-75-1) | GI50 (MCF7) | further results |
| --- | --- | --- | --- | --- | --- | --- | --- | --- | --- | --- | --- | --- | --- | --- |
| COc1cc2c(cc1O)N=CC1CCCN1C2=O (stereo not drawn) [DC-81, reference compound] | 0.3 °C | 0.7 °C | – | – | – | – | – | – | – | – | – | – | – | – |
| COc1cc2c(cc1OCCCCOc1ccc(-n3c(/C=C/c4ccccc4)nc4ccccc4c3=O)cc1)N=C[C@@H]1CCCN1C2=O [5l, 7-methoxy-8-{4-[(4-4-oxo-2-[(E)-2-phenyl-1-ethenyl]-3,4-dihydro-3-quinazolinylphenyl)oxy]butoxy}-(11aS)-1,2,3,11a-tetrahydro-5H-pyrrolo[2,1-c][1,4]benzodiazepine-5-one] | 1.2 °C | 2.3 °C | 2330 nM | 2390 nM | 160 nM | 1930 nM | 2070 nM | 160 nM | 1910 nM | 2190 nM | 2230 nM | 2440 nM | – | – |
| COc1cc2c(cc1OCCCOc1ccc(-n3c(/C=C/c4ccccc4)nc4ccccc4c3=O)cc1)N=C[C@@H]1CCCN1C2=O [5k, 7-methoxy-8-{3-[(4-4-oxo-2-[(E)-2-phenyl-1-ethenyl]-3,4-dihydro-3-quinazolinylphenyl)oxy]propoxy}-(11aS)-1,2,3,11a-tetrahydro-5H-pyrrolo[2,1-c][1,4]benzodiazepine-5-one] | 1.0 °C | 2.0 °C | 2150 nM | 1880 nM | 140 nM | 1850 nM | 1780 nM | 140 nM | 160 nM | 2000 nM | 2120 nM | 170 nM | 2030 nM | – |
| COc1cc2c(cc1OCCCCCOc1ccc(-n3c(/C=C/c4ccccc4)nc4ccccc4c3=O)cc1)N=C[C@@H]1CCCN1C2=O [5m, 7-methoxy-8-{5-[(4-4-oxo-2-[(E)-2-phenyl-1-ethenyl]-3,4-dihydro-3-quinazolinylphenyl)oxy]pentyloxy}-(11aS)-1,2,3,11a-tetrahydro-5H-pyrrolo[2,1-c][1,4]benzodiazepine-5-one] | 1.1 °C | 2.1 °C | 2310 nM | 2620 nM | 170 nM | 1820 nM | 2150 nM | 150 nM | 1830 nM | 2080 nM | 2000 nM | 2090 nM | 2500 nM | – |
| COc1cc2c(cc1OCCCCOc1ccc(-n3c(C)nc4ccccc4c3=O)cc1)N=C[C@@H]1CCCN1C2=O [5c, 7-methoxy-8{-4-[4-(2-methyl-4-oxo-3,4-dihydro-3-quinazolinyl)phenoxy]butoxy-}-(11aS)-1,2,3,11a-tetrahydro-5H-pyrrolo[2,1-c][1,4]benzodiazepine-5-one] | 1.0 °C | 2.1 °C | 1950 nM | 1930 nM | 1600 nM | 1950 nM | 1980 nM | 160 nM | 170 nM | 1910 nM | 1810 nM | 1970 nM | 2300 nM | – |
| COc1cc2c(cc1OCCCOc1ccc(-n3c(C)nc4ccccc4c3=O)cc1)N=C[C@@H]1CCCN1C2=O [5b, 7-methoxy-8{-3-[4-(2-methyl-4-oxo-3,4-dihydro-3-quinazolinyl)phenoxy]propoxy}-(11aS)-1,2,3,11a-tetrahydro-5H-pyrrolo[2,1-c][1,4]benzodiazepine-5-one] | 1.0 °C | 2.0 °C | – | – | – | – | – | – | – | – | – | – | – | GI50 [2]: < 1830 nM; GI50 (HOP-62; Homo sapiens): 160 nM; GI50 (A-549; Homo sapiens, A549, A-549, lung): 1480 nM; GI50 (DWD; Homo sapiens): 110 nM; GI50 (GURAV; Homo sapiens): 130 nM; GI50 (KB; Homo sapiens): 150 nM; GI50 (A-2780; Homo sapiens, A2780, A-2780, ovary): 100 nM; GI50 (PC-3; Homo sapiens): 130 nM; GI50 (Si-Ha; Homo sapiens, SiHa): 160 nM; GI50 (Colo-205; Homo sapiens): 140 nM; GI50 (Zr-75-1; Homo sapiens): 160 nM; GI50 (MCF7; Homo sapiens): 1830 nM; GI50 [3]: 160 to 1480 nM; GI50 [4]: 140 nM; GI50 [5]: 100 nM; GI50 [6]: 130 nM; pIC50 [7]: 5.74 to 6.80 |
